Values of other authors as cited in patent US8440655B2, “Combination therapy for the treatment of diabetes” (Theracos, Inc., priority 2010, dated 2013).

Experiments:
[1] = system: cardiac receptors; settings: (+) form compared to (−) form
[2] = system: cortical receptors; settings: (+) form compared to (−) isomer
[3] = system: muscarinic receptor; settings: result in words
[4] = at 90 degrees

SMILES	factor by which the (+) form is more potent than the (−) form [1]	factor by which the (+) form is more effective than the (−) isomer [2]	antimuscarinic activity [3]	half time of interconversion of the two forms [4]
Cc1scc2c1N(C(=O)CN1CCN(C)CC1)c1ccccc1NC2=O [(+) form of telenzepine]	50	400	potent antimuscarinic activity	–
Cc1scc2c1N(C(=O)CN1CCN(C)CC1)c1ccccc1NC2=O [(−) form]	–	–	considerably less active	–
Cc1scc2c1N(C(=O)CN1CCN(C)CC1)c1ccccc1NC2=O [Telenzepine, 4,9-Dihydro-3-methyl-4-[(4-methyl-1-piperazinyl)acetyl]-10H-thieno[3,4-b][1,5]benzodiazepin-10-one]	–	–	–	approximately 200 hours
